Measured values reported in patent publication US8609173B2, “Compositions comprising sweetness enhancers and methods of making them” (Senomyx Inc., priority 2008, dated 2013).

Test system: Panelists
Assay: Paired comparison taste test, flavored water
Format: in vivo, Human
Procedure: Two sweetened water solutions were prepared and compared: Flavored Water with 9% Sucrose vs. Flavored Water with 6% Sucrose+2.3 ppm (6.49 μM) of 5-(neopentyloxy)-1H-benzo[c][1,2,6]thiadiazin-4-amino-2,2-dioxide.
Mixing procedures: Dissolve acid into the water using a Lightnin® blender, mix for 5 minutes. Add sugar and continue to mix until dissolved. Add flavors last. Dissolve Compound A into a 0.50% propylene glycol mixture, add last and mix for another 5 minutes. Procedure:
Panelists evaluated two sweetened water solutions in a paired comparison taste test procedure and were instructed to select the sweeter of the two samples. They perform a total of three paired comparison tests each containing the following samples: Flavored Water with 9% Sucrose vs. Flavored Water with 6% Sucrose+2.3 ppm (6.49 μM) 5-(neopentyloxy)-1H-benzo[c][1,2,6]thiadiazin-4-amino-2,2-dioxide.
Two sweetened water solutions were prepared and compared: Flavored Water with 9% Sucrose vs. Flavored Water with 6% Sucrose+2.44 ppm (6.49 μM) of 3-(4-amino-2,2-dioxide-1H-benzo[c][1,2,6]thiadiazin-5-yloxy)-2′,2′-dimethyl-N-propylpropanamide.
Panelists evaluated two sweetened water solutions in a paired comparison taste test procedure and were instructed to select the sweeter of the two samples. They perform a total of three paired comparison tests each containing the following samples: Flavored Water with 9% Sucrose vs. Flavored Water with 6% Sucrose+2.44 ppm (6.49 μM) 3-(4-amino-2,2-dioxide-1H-benzo[c][1,2,6]thiadiazin-5-yloxy)-2′,2′-dimethyl-N-propylpropanamide.

CCCNC(=O)C(C)(C)COc1cccc2c1C(N)=NS(=O)(=O)N2 [3-(4-amino-2,2-dioxide-1H-benzo[c][1,2,6]thiadiazin-5-yloxy)-2′,2′-dimethyl-N-propylpropanamide]
Sample selected as sweeter by panelists, Total (Flavored Water with 6% Sucrose + 2.44 ppm (6.49 μM) compound chosen, vs 9% Sucrose, n = 42): 20
Sweetness comparison (conclusion) (Flavored Water with 6% Sucrose + 2.44 ppm (6.49 μM) compound vs 9% Sucrose, p>0.10): not significantly different in sweetness
